Results taken from US20170135990A1, “PHARMACEUTICAL COMPOSITIONS COMPRISING A 5,5-FUSED HETEROARYLENE FLAVIVIRIDAE INHIBITOR AND THEIR USE FOR TREATING OR PREVENTING FLAVIVIRIDAE INFECTION” (IDENIX PHARMACEUTICALS LLC, priority 2014, published 2017).

What was measured:
[1] = pharmacokinetic study in the monkey, PEG200 solution formulation; assay type: in vivo; conditions: 500 mg/kg, fed conditions
Description: Initial pharmacokinetic studies on compound A1 were performed both in vitro and in the monkey using a solution formulation containing PEG200. Compound A1 in the PEG200 solution was determined to have bioavailability of 0.1% F when administered at a dose of 500 mg/kg to the monkey under fed conditions.

[2] = aqueous solubility and permeability, BCS classification; assay type: physicochemical
Source text: Compound A1 has a low aqueous solubility and low permeability and, thus, is classified as a BCS class IV compound, which presents a significant formulation challenge. Cook et al., AAPS J. 2008, 10, 306-310.

COC(=O)N[C@H](C(=O)N1CCC[C@H]1c1nc2cc(-c3csc4c(-c5ccc(-c6cnc([C@@H]7CCCN7C(=O)[C@H](NC(=O)OC)c7ccccc7)[nH]6)cc5)csc34)ccc2[nH]1)C(C)C [compound A1, methyl N-[(1R)-2-[(2S)-2-[5-[4-[6-[2-[(2S)-1-[(2S)-2-(methoxycarbonylamino)-3-methyl-butanoyl]pyrrolidin-2-yl]-3H-benzimidazol-5-yl]thieno[3,2-b]thiophen-3-yl]phenyl]-1H-imidazol-2-yl]pyrrolidin-1-yl]-2-oxo-1-phenyl-ethyl]carbamate]
bioavailability [1]: 0.1 % F
aqueous solubility [2]: low
